# Where two headings read alike, the source gives them in different places.
# Legend:
# [1] = system: P. falciparum chloroquine-resistant strain FcB1-Columbia; experiment: Antiplasmodial screen at 10 µM and chemosensitivity assay (SYBR Green I), FcB1-Columbia; format: cell-based, Plasmodium falciparum
# [2] = Homolysis of the NO–C bond measured by EPR
# Method: Homolysis rate constants kd’ were measured by EPR and estimated using Equation (1) as reported many times in the literature. Further, Ea and kd were estimated using Equation (2). (1) ln([nitroxide]∞−[nitroxide]t/[nitroxide]∞)=−kd·t (2) Ea=−RT ln([…] kd′ )
# Adult S. mansoni = experiment: In vitro antischistosomal activity on adult worms; format: cell-based, Schistosoma mansoni; details: for Time for the death of 100% worms / S. mansoni Mean Survival Time: adult S. mansoni, observation up to 8 h; for Time for the death of 100% worms / Mean (±SD) survival time – Adult S. mansoni: 100 µg/mL; for Mean (±SD) survival time – Adult S. mansoni: observation up to 8 h (Table S1); for S. mansoni Mean Survival Time: single dose 100 µg/mL
# Source text: The NMRI strain of Schistosoma mansoni was used for the experimentations. The parasite was maintained on an albino variety of Biomphalaria glabrata from Brazil (intermediate host) and in Golden Hamsters, Mesocricetus auratus (Janvier Labs, Le Genest-Saint-Isle, France). Detailed methods, for mollusk and hamster infections and for parasite recovery, were previously described.
# Adult worms were recovered between 42 and 47 days after infection by hepatic perfusion technique. Twenty to fifty adult worms were disposed in 12-well Falcon® plate containing 2 mL of RPMI 1640 (supplemented with L-glutamine and Hepes 25 mM) and stored in an incubator chamber (37 °C; 5% CO2). Drug preparation started with dissolution of the drug in DMSO to give a 100 mg/mL stock solution. The dilution was complemented with Tween 80 and RPMI in order to obtain the following final ratio dilution: RPMI 1640/Tween 80/DMSO, 1000/0.95/3.8, v/v/v. The drug solution was added to Falcon plates that contained adult worms. The S. mansoni cultures were then incubated with each drug at a final concentration of 100 µg/mL. Positive control was carried out with a solution of praziquantel (Merck KGaA, Darmstadt, Germany) at a concentration of 100 µg/mL. Negative control was carried out with the same RPMI 1640/Tween 80/DMSO solution, but without any drug. Each test was performed in duplicate. Every hour, moving worms were counted in order to define the percentage of survivors. Parasites showing no body contractions during a 30 s observation were considered as dead. Observations were extended to 8 h. Mean survival times (± standard deviation) were calculated for each drug using Kaplan–Meier survival analyses.
# Vero cells = experiment: Cytotoxicity assay (MTT); details: read-out: Cytotoxicity Mean IC50, Vero cell lines, 48 h, MTT
# Method: Vero cells were cultured in MEM (Dutscher, Brumath, France) supplemented with 10% fetal bovine serum, 1× non-essential amino acids, 100 U/mL, 100 µg/mL penicillin/streptomycin, and 2 mM L-glutamine at 37 °C in a humidified 5% CO2 atmosphere. […] At this time, each well was microscope-examined for detection of possible precipitate formation prior to remove the supernatant by flicking the plate. 100 µL of a 0.5 mg/mL PBS-dissolved MTT tetrazolium (stock solution at 5 mg/mL) was then added to each well [48]. The plates were then incubated for 1 h at 37 °C and 5% CO2 prior to removing the supernatant and adding 100 µL of DMSO. Plates were gently shaken to dissolve formazan crystals resulting from the MTT tetrazolium reduction by living cells and read at 570 nm with BioTek µQuant Microplate Spectrophotometer.
# [3] = FcB1-Columbia strain, read-out: IC50 on P. falciparum
Structure (SMILES),Time for the death of 100% worms (Adult S. mansoni) [h],Mean (±SD) survival time – Adult S. mansoni (Adult S. mansoni) [h],"IC50 [1, 3] [µM]",other results
"CCOP(=O)(OCC)C(N(OC(C)c1cc(-c2ccccc2)cc(-c2ccccc2)c1)C(C)(C)CO)C(C)(C)C (stereo not drawn) [(RR/SS)-2G, Diethyl(1-((1-([1,1′:3′,1′′-terphenyl]-5′-yl)ethoxy)(1-hydroxy-2-methylpropan-2-yl)amino)-2,2-dimethylpropyl)phosphonate]",7,,,"IC50 ([1]; Plasmodium falciparum, FCB1, read-out: IC50 on P. falciparum, FcB1-Columbia strain): > 10 µM; activation energy Ea ([2]; MeOH/water 2:1 pH = 7.0): 28.94 kcal/mol; re-estimated homolysis rate constant kd at 120 °C ([2]; MeOH/water 2:1 pH = 7.0): 19.5 10^−3 s^−1; homolysis rate constant kd′ ([2]; MeOH/water 2:1 pH = 7.0, 81 °C): 3.3 10^−4s^−1; half-life ([2]; buffer, pH 7, half-lifetime t1/2 at 37 °C, MeOH/water 2:1 pH = 7.0): 295 h; half-life ([2]; half-lifetime t1/2 at 37 °C, t-BuPh): 180 h; activation energy Ea ([2]; t-BuPh): 28.87 kcal/mol; re-estimated homolysis rate constant kd at 120 °C ([2]; t-BuPh): 21.1 10^−3 s^−1; homolysis rate constant kd′ ([2]; t-BuPh, 81 °C): 3.8 10^−4s^−1"
CCOP(=O)(OCC)C(N(OC(CN)c1ccccc1)C(C)(C)C)C(C)(C)C (stereo not drawn) [(RS/SR)-1A],1,1.0 ± 0.05,,IC50 (Vero cells; listed as (RS/SR)-1A): 21 µM; S. mansoni Mean Survival Time (Adult S. mansoni): 1.0 ± 0.05 h
CCOP(=O)(OCC)C(N(OC(CO)c1ccccn1)C(C)(C)C)C(C)(C)C (stereo not drawn) [(RS/SR)-1i],> 8,> 8,> 10,
CCOP(=O)(OCC)C(N(OC(C)c1cc[n+]([O-])cc1)C(C)(C)C)C(C)(C)C (stereo not drawn) [(RR/SS)-1d],> 8,> 8,> 10,
CCOP(=O)(OCC)C(N(OC(C)c1ccc(C(=O)OC)cc1)C(C)(C)C)C(C)(C)C (stereo not drawn) [(RS/SR)-1x],4,2.4 ± 0.3,> 10,
CCOP(=O)(OCC)C(N(OC(C)c1ccc(C(=O)OC)cc1)C(C)(C)C)C(C)(C)C (stereo not drawn) [(RR/SS)-1x],> 8,> 8,> 10,
CCOP(=O)(OCC)C(N(OC(CN)c1cc[n+]([O-])cc1)C(C)(C)C)C(C)(C)C (stereo not drawn) [(RS/SR)-1e],> 8,> 8,> 10,
CCOP(=O)(OCC)C(N(OC(C)c1ccc(N)cc1)C(C)(C)C)C(C)(C)C (stereo not drawn) [(RS/SR)-1w],> 8,> 8,> 10,
CCOP(=O)(OCC)C(N(OC(CNC(=O)C(F)(F)F)c1ccccc1)C(C)(C)C)C(C)(C)C (stereo not drawn) [(RR/SS)-1E],6,5.0 ± 0.5,> 10,
CCOP(=O)(OCC)C(N(OC(C)c1ccc([N+](=O)[O-])cc1)C(C)(C)C)C(C)(C)C (stereo not drawn) [(RR/SS)-1v],4,3.4 ± 0.2,> 10,
CCOP(=O)(OCC)C(N(OC(C)c1ncc[nH]1)C(C)(C)C)C(C)(C)C (stereo not drawn) [(RS/SR)-1k],> 8,> 8,> 10,
CCOP(=O)(OCC)C(N(OC(C)c1c[nH]cn1)C(C)(C)C)C(C)(C)C (stereo not drawn) [(RR/SS)-1p],1,1.0 ± 0.05,,IC50 (Vero cells): > 100 µM; S. mansoni Mean Survival Time (Adult S. mansoni): 1.0 ± 0.05 h
CCOP(=O)(OCC)C(N(OC(COC)c1ccccc1)C(C)(C)C)C(C)(C)C (stereo not drawn) [(RS/SR)-1D],6,3.8 ± 0.5,> 10,
CCOP(=O)(OCC)[C@@H](N(O[C@@H](COC(C)=O)c1ccccn1)C(C)(C)C)C(C)(C)C (relative stereo) [(RR/SS)-1j],> 8,> 8,> 10,
CCOP(=O)(OCC)C(N(OC(CN)c1ccccc1)C(C)(C)C)C(C)(C)C (stereo not drawn) [(RR/SS)-1A],,,> 10,IC50 (Vero cells; listed as (RR/SS)-1A): > 100 µM
CCOP(=O)(OCC)C(N(OC(CNC(=O)C(F)(F)F)c1ccccn1)C(C)(C)C)C(C)(C)C (stereo not drawn) [(RS/SR)-1h],> 8,> 8,> 10,
CCOP(=O)(OCC)C(N(OC(CO)c1ccccc1)C(C)(C)C)C(C)(C)C (stereo not drawn) [(RS/SR)-1C],2,1.4 ± 0.2,> 10,
CCOP(=O)(OCC)C(N(OC(CN)c1ccccn1)C(C)(C)C)C(C)(C)C (stereo not drawn) [(RS/SR)-1g],4,2.6 ± 0.3,> 10,
CCOP(=O)(OCC)C(N(OC(C)c1ccc([N+](=O)[O-])cc1)C(C)(C)C)C(C)(C)C (stereo not drawn) [(RS/SR)-1v],> 8,> 8,> 10,
CCOP(=O)(OCC)C(N(OC(C)c1ccccc1)C(C)(C)CO)C(C)(C)C (stereo not drawn) [(RS/SR)-2z],> 8,> 8,> 10,
CCOP(=O)(OCC)C(N(OC(C)c1ncc[nH]1)C(C)(C)C)C(C)(C)C (stereo not drawn) [(RR/SS)-1k],1,1.0 ± 0.05,> 10,S. mansoni Mean Survival Time (Adult S. mansoni): 1.0 ± 0.05 h
CCOP(=O)(OCC)[C@@H](N(O[C@H](COC(C)=O)c1ccccn1)C(C)(C)C)C(C)(C)C (relative stereo) [(RS/SR)-1j],> 8,> 8,> 10,
CCOP(=O)(OCC)C(N(OC(C)n1ccnc1)C(C)(C)C)C(C)(C)C (stereo not drawn) [(RR/SS)-1o],3,2.3 ± 0.2,25,
CCOP(=O)(OCC)C(N(OC(C)n1ccnc1)C(C)(C)C)C(C)(C)C (stereo not drawn) [(RS/SR)-1o],2,1.1 ± 0.1,25,
CCOP(=O)(OCC)C(N(OC(C)c1c[nH]cn1)C(C)(C)C)C(C)(C)C (stereo not drawn) [(RS/SR)-1p],3,1.4 ± 0.3,20.5,

# — article PMC7503767, “Alkoxyamines Designed as Potential Drugs against Plasmodium and Schistosoma Parasites” (Molecules, 2020)
